Values of other authors as cited in patent publication US7230101B1, “Synthesis of methotrexate-containing heterodimeric molecules” (GPC Biotech, Inc., priority 2002, dated 2007).
Each block holds one molecule with its values, some of them ahead of it.

Experiments:
6 X His = conditions: dissociation constant, known in the art, read-out: Affinity
Tet-R = Tet-R (Escherichia coli, UniProt P04483); conditions: dissociation constant, known in the art, read-out: Affinity
[1] = target: Glutathione-S-Transferase; conditions: read-out: Affinity, dissociation constant, known in the art

Chain of Tet-R (P04483 whole entry): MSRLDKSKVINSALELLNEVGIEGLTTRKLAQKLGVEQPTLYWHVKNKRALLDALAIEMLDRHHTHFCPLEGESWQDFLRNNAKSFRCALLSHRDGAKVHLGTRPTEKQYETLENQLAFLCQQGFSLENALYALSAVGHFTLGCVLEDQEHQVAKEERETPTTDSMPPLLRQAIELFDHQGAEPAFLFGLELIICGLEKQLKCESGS

SMILES: [Ni] [Ni]
Kd (6 X His): 0.8 µM

SMILES: CN(C)[C@@H]1C(=O)C(C(N)=O)=C(O)[C@@]2(O)C(=O)C3=C(O)c4c(O)cccc4[C@@](C)(O)[C@H]3C[C@@H]12 [Tetracyclin]
Kd (Tet-R): 0.024 µM

Kd [1]: 24 µM
SMILES: N[C@@H](CCC(=O)N[C@@H](CS)C(=O)NCC(=O)O)C(=O)O [Glutathione]
